Experimental data as given in article PMC6882823, “Partitioning of amino acids and proteins into decanol using phase transfer agents towards understanding life in non-polar liquids” (Scientific Reports, 2019).

Experiments:
[1] = design: method as in PMID 7108955; settings: amino acid residue; positive scores = higher hydrophobicity; cited from earlier work
[2] = Water/decanol phase partitioning with or without phase transfer agents; type: physicochemical
Description: Biomolecules were dissolved in ultrapure water (Millipore EMD, USA), containing decylsulfate and/or DDAB when noted. […] Final concentrations of phase transfer agents (PTAs) and amino acids were generally 10 mM unless noted otherwise for specific experiments. Proteins were generally diluted until their 280 nm absorbance was less than or equal to 1 AU.
(§1) Equal volumes of water phase (containing the biomolecule and PTA, if added) and decanol were mixed, vortexed for 30 s, then centrifuged for 3 minutes with a mini centrifuge. These samples were prepared in triplicate. Both decanol and aqueous phase were analyzed for biomolecules. Phenylalanine and proteins were analyzed using UV-vis (Hewlett-Packard 8453).
(§2) HPLC was performed with Cosmosil HILiC column (2.5 µm particle size, 3 × 100 mm; Nacalai USA) at 30 °C with a 1.0 mL/min flow rate, and isocratic elution of 25% 20 mM ammonium acetate, pH 7.5 and 75% acetonitrile (Optima, LC-MS purity, Fisher Scientific). Injection volume was 10 µL. For mass spectra collection, HESI heater temp was 50 °C, with a 4.5 kV spray, and 250 °C capillary temperature in positive ion mode.

[3] = Potassium ion binding of valinomycin in the decanol phase; settings: decanol phase after partitioning against 100 mM KCl
Description: Ultra-pure Millipore grade (18.2 MΩ) water, 100 mM KCl or 100 mM AuCl were tested as aqueous phases. In all samples all of the valinomycin was found in the decanol phase (see SI for additional details).
as §1, §2

## N[C@@H](CCC(=O)O)C(=O)O [glutamic acid]
[1]
  Hydrophathy (hydropathy score of residue type): −3.5

## NCC(=O)O [glycine, Glycine]
[1]
  Hydrophathy (hydropathy score of residue type): −0.4

## N[C@@H](Cc1ccccc1)C(=O)O [phenylalanine, Phenylalanine]
[1]
  Hydrophathy (hydropathy score of residue type): 2.8
[2]; water/decanol, 10 mM phenylalanine, 1:1 ratio of PTA (DS and DDAB 1:1), pH 7 zwitterionic, UV-vis, n = 3
  phenylalanine partitioning into decanol, 1:1 PTA to phenylalanine, pH 7: 15%
[2]; water/decanol, 10 mM phenylalanine, 1:10 ratio of PTA, all pHs (1.5 DS; 7.0 DS and DDAB; 10.0 DDAB), UV-vis, n = 3
  phenylalanine entering the decanol phase, 1:10 PTA to phenylalanine: about 10%

## Tpol: Taq DNA polymerase, UniProt P19821
[2]; water/decanol, no PTA or 5 mM of both DDAB and DS, UV-vis
  Tpol entering the decanol phase: About 10%

## valinomycin [reference compound]
[3]
  ability to bind potassium ions: appeared to retain its biological ability to bind to potassium ions
[2]; water/decanol, without PTAs, aqueous phase ultra-pure water, 100 mM KCl or 100 mM AuCl, LC-MS and UV 210 nm, three independent partitionings
  valinomycin found in the decanol phase: all

B1: Bacteriorhodopsin: a membrane protein, soluble only in amphiphilic systems (protein, UniProt P02945 14-262, looked up)
Bacteriorhodopsin: QAQITGRPEWIWLALGTALMGLGTLYFLVKGMGVSDPDAKKFYAITTLVPAIAFTMYLSMLLGYGLTMVPFGGEQNPIYWARYADWLFTTPLLLLDLALLVDADQGTILALVGADGIMIGTGLVGALTKVYSYRFVWWAISTAAMLYILYVLFFGFTSKAESMRPEVASTFKVLRNVTVVLWSAYPVVWLIGSEGAGIVPLNIETLLFMVLDVSAKVGFGLILLRSRAIFGEAEAPEPSAGDGAAATSD
[2]; water/decanol with DS and DDAB added, visual
  behaviour of bacteriorhodopsin in partitioning experiments: aggregated at the interface between the water and oil phase
[2]; without PTAs, appearing as crystals
  solubility in water and decanol phases: insoluble in both the water and decanol phases
